Literature values in patent US10335452B2, “Method of treating patients with hepatorenal syndrome type 1” (Mallinckrodt Hospital Products IP Limited, priority 2014, dated 2019).
Positions of bridges follow the written chain, without caps; N, C: chain ends. Residues, ends and D or L forms follow the SMILES beside them.

Tests used:
[1] = test system: HRS-1 patients; settings: each listed reaction occurred in more than this share of patients
[2] = in vivo

Row | Structure (SMILES) | Adverse reaction, share of patients (vomiting, abdominal pain, nausea, diarrhea, intestinal ischemia, dyspnea, sneezing, pulmonary edema and fluid overload) [1] | duration of action [2]
1 | NCCCC[C@H](NC(=O)[C@@H]1CCCN1C(=O)[C@@H]1CSSC[C@H](NC(=O)CNC(=O)CNC(=O)CN)C(=O)N[C@@H](Cc2ccc(O)cc2)C(=O)N[C@@H](Cc2ccccc2)C(=O)N[C@@H](CCC(N)=O)C(=O)N[C@@H](CC(N)=O)C(=O)N1)C(=O)NCC(N)=O [terlipressin, N—[N—(N-glycylglycyl)glycyl]-8-L-lysinevasopressin] (H-GGGCYFQNCPKG-NH2; disulfide 4-9 (inferred)) | more than 10% | 2 to 10 h
2 | NC(=O)CC[C@@H]1NC(=O)[C@H](Cc2ccccc2)NC(=O)[C@H](Cc2ccc(O)cc2)NC(=O)[C@@H](N)CSSC[C@@H](C(=O)N2CCC[C@H]2C(=O)N[C@@H](CCCN=C(N)N)C(=O)NCC(N)=O)NC(=O)[C@H](CC(N)=O)NC1=O [vasopressin] | – | 0.5 to 1 h
